Measurements taken from patent US4652636A, “Pentene-diphenyl-diglucoside containing compound” (priority 1982, dated 1987).

Assays:
[1] = system: pregnant mouse foeti; test: Foetotoxic-teratogenic effect of (I) in pregnant mice; type: in vivo, mouse (Swiss Webster); details: for No of foeti / No of implantation sites / No of live foeti / No of malformations: 6 mice
Experimental: Two groups of six fully impregnated mice (Swiss Webster offspring) were treated orally with aqueous solutions of (I) once per day (10 ml/kg) starting day 1 through to day 8 of the gestation period. On day 20 of the pregnancies the mice were lightly anaethetised with diethyl ether and the uterus exposed by caesarian section. The total number of implantation sites were counted. All foeti were removed and examined for
(b) macroscopic gross anatomical abnormalities of limbs and head.

[2] = system: Mouse sarcoma--Ms 52 B; test: In vitro cytostatic cytotoxic effects, MS 52 B; type: cell-based; details: I 40 ng, 37° C.
Experimental: (§1) "In vitro" cytostatic cytotoxic effects with Hypoxis rooperi extracts (example 2(e)(i)) and Compound I Four different cell culture types were used:
i. Mouse sarcoma--Ms 52 B
(§2) Procedure: Trypsinized cells were harvested into MEM and suitably diluted to supply about 2×10^5 cells per cm^3. A culture flask containing 4,5 cm^3 of culture medium was seeded with 0.5 cm^3 of the prepared cell suspension. This cell culture was then incubated at 37° C. for 24 hours before the test substances dissolved in 0.5 cm^3 of the culture medium were added.

[3] = system: Human foetal foreskin fibroblasts--HFSF; test: In vitro cytostatic cytotoxic effects, HFSF (non-malignant); type: cell-based; details: I 40 ng, 37° C.
Experimental: as §1
iv. Human foetal foreskin fibroblasts--HFSF (non-malignant)
as §2

[4] = system: Heha 229; test: In vitro cytostatic cytotoxic effects, Heha 229; type: cell-based; details: Heha 229, I 40 ng, 37° C.
Experimental: as §1, §2

[5] = system: Mouse melacoma--Mel B1-6; test: In vitro cytostatic cytotoxic effects, Mel B1-6; type: cell-based; details: Mel B1-6, I 40 ng, 37° C.
Experimental: as §1
ii. Mouse melacoma--Mel B1-6
as §2

[6] = system: Rabbits; test: Acute toxicity evaluation of (I), rabbits; type: in vivo, rabbit; details: intravenous; for Mortality (Range %): dead/treated
Experimental: (§3) Solutions of (I) in distilled water were prepared with the required concentration. Administered volumes were kept constant at the rate of 10 cm^3 per kg. In each case equal numbers of males and females were treated with a single dose. All animals were observed over 7 days for signs of toxic and/or pharmaco-dynamic effects.
(§4) A necropsy was performed on all surviving animals.

[7] = Acute toxicity evaluation of (I), mouse; type: in vivo; details: in vivo, ip, mouse, intraperitoneal, dead/treated (range %)
Experimental: as §3, §4

[8] = system: Mouse; test: Acute toxicity evaluation of (I), mouse; type: in vivo; details: for Mortality (Range %): dead/treated
Experimental: as §3, §4

OC[C@H]1O[C@@H](Oc2ccc(C#CC/C=C/c3ccc(O[C@@H]4O[C@H](CO)[C@@H](O)[C@H](O)[C@H]4O)c(O)c3)cc2O)[C@H](O)[C@@H](O)[C@@H]1O [Compound I]
No of foeti ([1]; 20 mg/kg oral): 52 | No of implantation sites ([1]; 20 mg/kg oral): 58 | No of live foeti ([1]; 20 mg/kg oral): 50 | No of malformations ([1]; 20 mg/kg oral): 0 | No of foeti ([1]; 100 mg/kg oral): 49 | No of implantation sites ([1]; 100 mg/kg oral): 58 | No of live foeti ([1]; 100 mg/kg oral): 45 | No of malformations ([1]; 100 mg/kg oral): 3 (2?) | abnormally reduced growth rate of the foeti ([1]; any of the treated groups): no indications of abnormally reduced growth rate of the foeti | teratogenic effects ([1]; at the doses administered): unlikely | adverse effects in the treated mother animals ([1]; treated mother animals): No adverse effects were detected | Confluency ([2]; 24 hours): 40% | Confluency ([2]; 48 hours): 20% | Confluency ([2]; 72 hours): 20% | Confluency ([2]; 96 hours): 20% | Confluency ([3]; 24 hours): 40% | Confluency ([3]; 48 hours): 50% | Confluency ([3]; 72 hours): 50% | Confluency ([3]; 96 hours): 40% | Confluency ([4]; 24 hours): 50% | Confluency ([4]; 48 hours): 60% | Confluency ([4]; 72 hours): 50% | Confluency ([4]; 96 hours): 30% | Confluency ([5]; 24 hours): 40% | Confluency ([5]; 48 hours): 30% | Confluency ([5]; 72 hours): 40% | Confluency ([5]; 96 hours): 40% | Confluency ([5]; 120 hours): 30% | Mortality (Range %) ([6]; 50 mg/kg): 0/2 | Mortality (Range %) ([6]; 100 mg/kg): 0/2 | Remarks: macroscopic lesions ([6]; 50 and 100 mg/kg): no macropscopic | Remarks: thrombophlebitis at the injection site ([6]; 50 and 100 mg/kg): No thrombophlebitis | Remarks: visible effects ([6]; 50 and 100 mg/kg): No visible effects | mortality at 168 h ([7]; 1000 mg/kg): 16.7% | mortality at 168 h ([7]; 2000 mg/kg): 90% | direct toxic effects (conclusion) ([8]; acute toxicity, single dose): low degree of direct toxic effects | Mortality (Range %) ([8]; mouse, intraperitoneal, 250 mg/kg): 0/10 | Mortality (Range %) ([8]; mouse, intraperitoneal, 500 mg/kg): 0/20 | Remarks: signs of discomfort ([8]; mouse, intraperitoneal, all animals, increasing with dose): discomfort | Mortality (Range %) ([8]; mouse, oral, 1000 mg/kg): 0/20 | Mortality (Range %) ([8]; mouse, oral, 2000 mg/kg): 0/20 | Mortality (Range %) ([8]; mouse, oral, 4000 mg/kg): 0/20 | Remarks: macroscopic lesions ([8]; mouse, oral, 1000-4000 mg/kg, any animal): No macroscopic | macroscopic lesions on necropsy ([8]; surviving animals): No macroscopic lesions were observed
